We go through 22 compounds from patent publication US9688702B2, “Alpha-amino boronic acid derivatives, selective immunoproteasome inhibitors” (Ares Trading S.A, priority 2011, dated 2017).

Assay [1] concerns the target LMP7 (purified human immuno proteasome) (Homo sapiens, UniProt P28062). The experiment in a line: Determination of LMP7 activity (fluorescence intensity assay, Suc-LLVY-AMC). The following applies: for IC50: purified human immuno proteasome 0.5 nM, 40 μM Suc-LLVY-AMC, 37° C. Format: biochemical. As for the experimental part:
Measurement of LMP7 inhibition is performed in 384 well format based on fluorescence intensity assay.
Purified human immuno proteasome (0.5 nM) and serial diluted compounds in DMSO (range of concentrations from 10 μM to 38 pM) or controls (0.5% DMSO) are incubated for 30 minutes at 37° C. in assay buffer containing 50 mM Tris pH 7.4 and 0.03% SDS. The reaction is initiated by the addition of the fluorogenic peptide substrate, Suc-LLVY-AMC (Bachem I-1395), at a concentration of 40 μM. After 90 minutes of incubation at 37° C., fluorescence intensity is measured at λex=350 nm and λem=450 nm with a fluorescence reader (BMG Pherastar reader or equivalent).
Purified human immuno proteasome (0.25 nM) and serial diluted compounds in DMSO (range of concentrations from 10 μM to 38 pM) or controls (0.5% DMSO) are incubated for 30 minutes at 37° C. in assay buffer containing 50 mM Tris pH 7.4 and 0.03% SDS. The reaction is initiated by the addition of the fluorogenic peptide substrate, Suc-LLVY-AMC (Bachem I-1395), at a concentration of 40 μM. After 90 minutes of incubation at 37° C., fluorescence intensity is measured at λex=350 nm and λem=450 nm with a fluorescence reader (BMG Pherastar reader or equivalent).

For assay [2], the target named is Beta5 (purified human constitutive proteasome) (Homo sapiens, UniProt P28074). Description: Determination of Beta5 activity (fluorescence intensity assay, Suc-LLVY-AMC). Format: biochemical. The following applies: purified human constitutive proteasome 1.0 nM, 40 μM Suc-LLVY-AMC, 37° C. As for the experimental part:
Measurement of Beta5 inhibition is performed in 384 well format based on fluorescence intensity assay.
Purified human constitutive proteasome (1.0 nM) and serial diluted compounds in DMSO (range of concentrations from 10 μM to 38 pM) or controls (0.5% DMSO) are incubated for 30 minutes at 37° C. in assay buffer containing 50 mM Tris pH 7.4 and 0.03% SDS. The reaction is initiated by the addition of the fluorogenic peptide substrate, Suc-LLVY-AMC (Bachem 1-1395), at a concentration of 40 μM. After 90 minutes of incubation at 37° C., fluorescence intensity is measured at λex=350 nm and λem=450 nm with a fluorescence reader (BMG Pherastar reader or equivalent).

A value given as a limit tells only on which side of the number the result lay.

As for `O=C(CCn1cnc2ccccc21)N[C@@H](Cc1ccsc1)B(O)O` [Example 33, [(1R)-1-{[3-(1H-benzimidazol-1-yl)propanoyl]amino}-2-(3-thienyl)ethyl]boronic acid], in assay [1], the “Selectivity LMP7 vs Beta5” value was “+ (+: Selectivity < 10)” and the IC50 was 50 to 500 nM. This compound also gave an IC50 in assay [2] of 50 to 500 nM.
For `O=C(CCn1c(=O)sc2ccccc21)N[C@@H](Cc1ccsc1)B(O)O` [Example 34, [(1R)-1-{[3-(2-oxo-1,3-benzothiazol-3(2H)-yl)propanoyl]amino}-2-(3-thienyl)ethyl]boronic acid], in assay [1], the “Selectivity LMP7 vs Beta5” value is “+ (+: Selectivity < 10)” and the IC50 was less than 50 nM. Further, the IC50 in assay [2] is 50 to 500 nM.
Regarding `O=C(CCn1nnc2ccccc21)N[C@@H](Cc1ccsc1)B(O)O` [Example 35, [(1R)-1-{[3-(1H-1,2,3-benzotriazol-1-yl)propanoyl]amino}-2-(3-thienyl)ethyl]boronic acid], in assay [1], the “Selectivity LMP7 vs Beta5” value was “+ (+: Selectivity < 10)”. Besides, the figures for the IC50 in assay [1] and in assay [2] were less than 50 nM and 50 to 500 nM, respectively.
Consider `CCc1cccc(C[C@H](NC(=O)CCc2noc(-c3ccccc3)n2)B(O)O)c1` [Example 36, ((1R)-2-(3-ethylphenyl)-1-{[3-(5-phenyl-1,2,4-oxadiazol-3-yl)propanoyl]amino}ethyl)boronic acid], for which the “Selectivity LMP7 vs Beta5” value in assay [1] was “+++ (+++: Selectivity > 30)”. Moreover, the concentration for half-maximal inhibition (IC50) in assay [1] is less than 50 nM; in assay [2], 500 to 5000 nM.
As for `O=C(CCc1noc(-c2ccccc2)n1)N[C@@H](Cc1ccsc1)B(O)O` [Example 37, [(1R)-1-{[3-(5-phenyl-1,2,4-oxadiazol-3-yl)propanoyl]amino}-2-(3-thienyl)ethyl]boronic acid], in assay [1], the “Selectivity LMP7 vs Beta5” value was “++ (++: 10 < Selectivity < 30)”. Moreover, the IC50 fell in the range of 50 to 500 nM in assay [1] and 500 to 5000 nM in assay [2].
Take `O=C(CCn1cnc2ccccc21)N[C@@H](Cc1cccc(C(F)(F)F)c1)B(O)O` [Example 38, {(1R)-1-{[3-(1H-benzimidazol-1-yl)propanoyl]amino}-2-[3-(trifluoromethyl)phenyl]ethyl}boronic acid]: in assay [1], the “Selectivity LMP7 vs Beta5” value is listed as “++ (++: 10 < Selectivity < 30)” and the IC50 is less than 50 nM. The compound also displayed an IC50 in assay [2] of 50 to 500 nM.
With `O=C(CCc1noc(-c2ccccc2)n1)N[C@@H](Cc1cccc(C(F)(F)F)c1)B(O)O` [Example 39, {(1R)-1-{[3-(5-phenyl-1,2,4-oxadiazol-3-yl)propanoyl]amino}-2-[3-(trifluoromethyl)phenyl]ethyl}boronic acid], in assay [1], the “Selectivity LMP7 vs Beta5” value is on record as “+++ (+++: Selectivity > 30)” and the IC50 was in the range of 50 to 500 nM. In assay [2], this compound registered an IC50 of 500 to 5000 nM.
On the same counts, the results for `O=C(CCn1cc(-c2ccccc2)nn1)N[C@@H](Cc1ccsc1)B(O)O` [Example 40, [(1R)-1-{[3-(4-phenyl-1H-1,2,3-triazol-1-yl)propanoyl]amino}-2-(3-thienyl)ethyl]boronic acid] are “++ (++: 10 < Selectivity < 30)”, less than 50 nM and 50 to 500 nM.
For the compound `O=C(CCc1cn(-c2ccccc2)nn1)N[C@@H](Cc1ccsc1)B(O)O` [Example 41, [(1R)-1-{[3-(1-phenyl-1H-1,2,3-triazol-4-yl)propanoyl]amino}-2-(3-thienyl)ethyl]boronic acid], in assay [1], the “Selectivity LMP7 vs Beta5” value is on record as “+++ (+++: Selectivity > 30)”. In addition, the IC50 in assay [1] was less than 50 nM; in assay [2] it was 500 to 5000 nM.
For `CCc1cccc(C[C@H](NC(=O)Cn2ccc3ccccc3c2=O)B(O)O)c1` [Example 42, ((1R)-2-(3-ethylphenyl)-1-{[(1-oxoisoquinolin-2(1H)-yl)acetyl]amino}ethyl)boronic acid] the same measures were “++ (++: 10 < Selectivity < 30)”, 50 to 500 nM and 500 to 5000 nM.
Turning to `COc1ccc(C(=O)CCC(=O)N[C@@H](Cc2ccc(OC(F)(F)F)cc2)B(O)O)cc1` [Example 43, (R)-(1-(4-(4-methoxyphenyl)-4-oxobutanamido)-2-(4-(trifluoromethoxy)phenyl)ethyl)boronic acid], in assay [1], the “Selectivity LMP7 vs Beta5” value was “++ (++: 10 < Selectivity < 30)” and the IC50 lay within 50 to 500 nM. The same compound registered an IC50 in assay [2] of 500 to 5000 nM.
In the case of `COc1ccc(C(=O)CC(Cc2ccccc2)C(=O)N[C@@H](Cc2ccc(OC(F)(F)F)cc2)B(O)O)cc1` (stereo partly drawn) [Example 44, ((1R)-1-(2-benzyl-4-(4-methoxyphenyl)-4-oxobutanamido)-2-(4-(trifluoromethoxy)phenyl)ethyl)boronic acid], in assay [1], the “Selectivity LMP7 vs Beta5” value is recorded as “++ (++: 10 < Selectivity < 30)” and the IC50 was less than 50 nM. This compound also showed an IC50 in assay [2] of 50 to 500 nM.
On the same counts, the results for `COc1ccc(C(=O)C[C@@H](Cc2ccccc2)C(=O)N[C@@H](Cc2ccc(OC)c(C(F)(F)F)c2)B(O)O)cc1` [Example 45, ((R)-1-((R)-2-benzyl-4-(4-methoxyphenyl)-4-oxobutanamido)-2-(4-methoxy-3-(trifluoromethyl)phenyl)ethyl)boronic acid] are “+++ (+++: Selectivity > 30)”, less than 50 nM and 500 to 5000 nM.
Consider `COc1ccc(C(=O)CCC(=O)N[C@@H](Cc2ccc(OC)c(C(F)(F)F)c2)B(O)O)cc1` [Example 46, (R)-(2-(4-methoxy-3-(trifluoromethyl)phenyl)-1-(4-(4-methoxyphenyl)-4-oxobutanamido)ethyl)boronic acid], for which the IC50 is 50 to 500 nM in assay [1] and more than 5000 nM in assay [2].
In the case of `COc1ccc(C(=O)CCC(=O)N[C@@H](Cc2cc(F)cc(OC)c2)B(O)O)cc1` [Example 47, (R)-(2-(3-fluoro-5-methoxyphenyl)-1-(4-(4-methoxyphenyl)-4-oxobutanamido)ethyl)boronic acid], in assay [1], the “Selectivity LMP7 vs Beta5” value is “+++ (+++: Selectivity > 30)” and the IC50 lay within 50 to 500 nM. For the same compound, in assay [2], the IC50 is more than 5000 nM.
For `COc1ccc(C(=O)CCC(=O)N[C@@H](Cc2cccc(OC(F)(F)F)c2)B(O)O)cc1` [Example 48, (R)-(1-(4-(4-methoxyphenyl)-4-oxobutanamido)-2-(3-(trifluoromethoxy)phenyl)ethyl)boronic acid] the same measures were “++ (++: 10 < Selectivity < 30)”, 50 to 500 nM and 500 to 5000 nM.
For `COc1ccc(C(=O)CC(Cc2ccccc2)C(=O)N[C@@H](Cc2cc(F)cc(OC)c2)B(O)O)cc1` (stereo partly drawn) [Example 49, ((1R)-1-(2-benzyl-4-(4-methoxyphenyl)-4-oxobutanamido)-2-(3-fluoro-5-methoxyphenyl)ethyl)boronic acid] the same measures were “++ (++: 10 < Selectivity < 30)”, less than 50 nM and 50 to 500 nM.
Turning to `COc1ccc(C(=O)CCC(=O)N[C@@H](Cc2ccc(F)c(C(F)(F)F)c2)B(O)O)cc1` [Example 50, (R)-(2-(4-fluoro-3-(trifluoromethyl)phenyl)-1-(4-(4-methoxyphenyl)-4-oxobutanamido)ethyl)boronic acid], in assay [1], the “Selectivity LMP7 vs Beta5” value was “++ (++: 10 < Selectivity < 30)” and the IC50 fell in the range of 50 to 500 nM. This compound also yielded an IC50 in assay [2] of more than 5000 nM.
For the compound `O=C(CCn1cnc2ccccc21)N[C@@H](Cc1ccc(OC(F)(F)F)cc1)B(O)O` [Example 51, (R)-(1-(3-(1H-benzo[d]imidazol-1-yl)propanamido)-2-(4-(trifluoromethoxy)phenyl)ethyl)boronic acid], the “Selectivity LMP7 vs Beta5” value in assay [1] was “+ (+: Selectivity < 10)”. For the same compound, the IC50 in assay [1] was less than 50 nM; in assay [2], 50 to 500 nM.
For the compound `CCc1cccc(C[C@H](NC(=O)CCn2cc(-c3ccccc3)nn2)B(O)O)c1` [Example 52, (R)-(2-(3-ethylphenyl)-1-(3-(4-phenyl-1H-1,2,3-triazol-1-yl)propanamido)ethyl)boronic acid], in assay [1], the “Selectivity LMP7 vs Beta5” value is “+++ (+++: Selectivity > 30)” and the IC50 was less than 50 nM. This compound also registered an IC50 in assay [2] of 50 to 500 nM.
For `COc1ccc(C[C@H](NC(=O)CCn2cnc3ccccc32)B(O)O)cc1C(F)(F)F` [Example 53, (R)-(1-(3-(1H-benzo[d]imidazol-1-yl)propanamido)-2-(4-methoxy-3-(trifluoromethyl)phenyl)ethyl)boronic acid] the same measures were “+ (+: Selectivity < 10)”, less than 50 nM and 50 to 500 nM.
Turning to `CCc1cccc(C[C@H](NC(=O)CCn2c(C)nc3ccccc32)B(O)O)c1` [Example 54, (R)-(2-(3-ethylphenyl)-1-(3-(2-methyl-1H-benzo[d]imidazol-1-yl)propanamido)ethyl)boronic acid], in assay [1], the “Selectivity LMP7 vs Beta5” value is “++ (++: 10 < Selectivity < 30)” and the IC50 is less than 50 nM. The IC50 in assay [2] fell in the range of 50 to 500 nM.
